From US20140171431A1, “AZOLE HETEROCYCLIC COMPOUND, PREPARATION METHOD, PHARMACEUTICAL COMPOSITION AND USE” (priority 2011, published 2014)
Read-outs that look alike come from different tables or passages of the source.

How the values were obtained:
[1] = biological target: T1, Lp-PLA2 in rabbit serum (Oryctolagus cuniculus, UniProt G1SE06); experiment: In vitro inhibitory activity towards the enzyme Lp-PLA2 in rabbit serum, [3H]PAF substrate; assay type: biochemical; details: 100 nM
T1 construct: from tissue; host or cells: rabbit serum
T1 sequence (G1SE06 22-423): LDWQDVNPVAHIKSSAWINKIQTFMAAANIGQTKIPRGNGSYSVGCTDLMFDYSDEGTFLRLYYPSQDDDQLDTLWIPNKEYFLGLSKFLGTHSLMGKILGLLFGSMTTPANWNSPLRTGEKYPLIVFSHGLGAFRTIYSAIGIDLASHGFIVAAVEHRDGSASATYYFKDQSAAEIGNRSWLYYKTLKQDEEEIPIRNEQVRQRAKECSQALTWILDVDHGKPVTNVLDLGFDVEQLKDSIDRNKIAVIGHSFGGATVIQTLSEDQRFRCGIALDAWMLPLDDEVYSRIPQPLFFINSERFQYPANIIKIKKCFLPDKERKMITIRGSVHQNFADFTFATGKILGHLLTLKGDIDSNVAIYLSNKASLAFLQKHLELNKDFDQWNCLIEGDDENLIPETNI

[2] = biological target: T2, Lp-PLA2 in human serum (Homo sapiens, UniProt Q13093); experiment: In vitro inhibitory activity towards the enzyme Lp-PLA2 in human serum, [3H]PAF substrate; assay type: biochemical; details: for inhibition at 0.01 µM: 10 nM; for inhibition at 0.1 µM: 100 nM
T2 construct: from tissue
T2 sequence (Q13093 22-441): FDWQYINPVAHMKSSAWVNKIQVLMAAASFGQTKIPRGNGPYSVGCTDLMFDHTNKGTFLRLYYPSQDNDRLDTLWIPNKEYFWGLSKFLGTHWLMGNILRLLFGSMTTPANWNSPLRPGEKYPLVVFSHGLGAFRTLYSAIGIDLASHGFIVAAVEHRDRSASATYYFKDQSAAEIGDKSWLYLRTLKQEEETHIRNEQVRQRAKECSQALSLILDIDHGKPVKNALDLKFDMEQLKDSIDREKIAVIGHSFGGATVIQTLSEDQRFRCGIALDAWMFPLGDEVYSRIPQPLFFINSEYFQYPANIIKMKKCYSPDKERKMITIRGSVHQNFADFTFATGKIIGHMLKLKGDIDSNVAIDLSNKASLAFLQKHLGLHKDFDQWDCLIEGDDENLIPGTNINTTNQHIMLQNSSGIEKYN
Summary of the method: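 Human plasma was preincubated with compound 10 min at 37 °C in 50 mM HEPES, 150 mM NaCl, pH 7.4. Reaction started with 20 nM [3H]PAF, run 10 min at 37 °C, then extracted with CHCl3/MeOH (2:1); radioactivity of the supernatant was counted.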

[3] = rabbit serum, read-out: inhibition, %
[4] = human serum, read-out: inhibition, %
[5] = read-out: inhibitory rate towards the rabbit serum derived Lp-PLA2 enzyme
[6] = read-out: inhibitory rate towards the human serum derived Lp-PLA2 enzyme

In the case of `CCN(CC)CCNC(C)c1nnc(Cn2c(SCc3ccc(F)cc3)nc(=O)c3c2CCC3)n1Cc1ccc(-c2ccc(C(F)(F)F)cc2)cc1` (stereo not shown) [Example 130, 1-((5-(1-(2-(diethylamino)ethylamino)ethyl)-4-((4′-(trifluoromethyl)biphenyl-4-yl)methyl)-4H-1,2,4-triazol-3-yl)methyl)-2-(4-fluorobenzylthio)-6,7-dihydro-1H-cyclopenta[d]pyrimidin-4(5H)-one], the inhibition at 0.1 µM [1, 3] is reported as 94% and the inhibition at 0.01 µM [2, 4] is reported as 92%.
`CC(C)(C)N/N=C/c1nnc(Cn2c(SCc3ccc(F)cc3)nc(=O)c3c2CCC3)n1Cc1ccc(-c2ccc(C(F)(F)F)cc2)cc1` [Example 118] was tested, and the inhibition at 0.1 µM [1, 3] was 68%, the inhibition at 0.01 µM [2, 4] was 58% and the inhibition at 0.1 µM ([2]; human serum) was 88%.
`C[C@@H]1CN(Cc2nnc(Cn3c(SCc4ccc(F)cc4)nc(=O)c4c3CCC4)n2Cc2ccc(-c3ccc(C(F)(F)F)cc3)cc2)C[C@H](C)O1` [Example 84, 1-((5-(((2S,6R)-2,6-dimethylmorpholino)methyl)-4-((4′-(trifluoromethyl)biphenyl-4-yl)methyl)-4H-1,2,4-triazol-3-yl)methyl)-2-(4-fluorobenzylthio)-6,7-dihydro-1H-cyclopenta[d]pyrimidin-4(5H)-one] was tested, and the inhibition at 0.1 µM [1, 3] was 76%, the inhibition at 0.01 µM [2, 4] was 69% and the inhibition at 0.1 µM ([2]; human serum) was 91%.
`CN(C)C(=O)c1cnc(Cn2c(SCc3ccc(F)cc3)nc(=O)c3c2CCC3)n1Cc1ccc(-c2ccc(C(F)(F)F)cc2)cc1` [Example 52, 2-((2-(4-fluorobenzylthio)-4-oxo-4,5,6,7-tetrahydro-1H-cyclopenta[d]pyrimidin-1-yl)methyl)-N,N-dimethyl-1-((4′-(trifluoromethyl)biphenyl-4-yl)methyl)-1H-imid azole-5-carboxamide] was tested, and the inhibition at 0.1 µM [1, 3] was 90%, the inhibition at 0.1 µM [1, 5] was greater than 90% and the inhibition at 0.01 µM [2, 4] was 97%. For the same compound, the inhibition at 0.01 µM [2, 6] was greater than 80% and the inhibition at 0.1 µM ([2]; human serum) was 99%.
For `CC(O)c1nnc(Cn2c(SCc3ccc(F)cc3)nc(=O)c3c2CCC3)n1Cc1ccc(-c2ccc(C(F)(F)F)cc2)cc1` (stereo not shown) [Example 120, 2-(4-fluorobenzylthio)-1-((5-(1-hydroxyethyl)-4-((4′-(trifluoromethyl)biphenyl-4-yl)methyl)-4H-1,2,4-triazol-3-yl)methyl)-6,7-dihydro-1H-cyclopenta[d]pyrimidin-4(5H)-one], the inhibition at 0.1 µM [1, 3] was 90%, the inhibition at 0.1 µM [1, 5] was greater than 90% and the inhibition at 0.01 µM [2, 4] was 89%. The inhibition at 0.01 µM [2, 6] was greater than 80% and the inhibition at 0.1 µM ([2]; human serum) was 98%.
`C[N+](C)(CCO)Cc1nnc(Cn2c(SCc3ccc(F)cc3)nc(=O)c3c2CCC3)n1Cc1ccc(-c2ccc(C(F)(F)F)cc2)cc1` [Example 122, N-((5-((2-(4-fluorobenzylthio)-4-oxo-4,5,6,7-tetrahydro-1H-cyclopenta[d]pyrimidin-1-yl)methyl)-4-((4′-(trifluoromethyl)biphenyl-4-yl)methyl)-4H-1,2,4-triazol-3-yl)methyl)-2-hydroxy-N,N-dimethylethanaminium chloride] gave an inhibition at 0.1 µM [1, 3] of 95%, an inhibition at 0.1 µM [1, 5] greater than 90% and an inhibition at 0.01 µM [2, 4] of 92%. For the same compound, the inhibition at 0.01 µM [2, 6] was greater than 80%.
Work on `COC(=O)C(C)(C)NCc1nnc(Cn2c(SCc3ccc(F)cc3)nc(=O)c3c2CCC3)n1Cc1ccc(-c2ccc(C(F)(F)F)cc2)cc1` [Example 85, methyl-2-((5-((2-(4-fluorobenzylthio)-4-oxo-4,5,6,7-tetrahydro-1H-cyclopenta[d]pyrimidin-1-yl)methyl)-4-((4′-(trifluoromethyl)biphenyl-4-yl)methyl)-4H-1,2,4-triazol-3-yl)methylamino)-2-methylpropanoate] yielded an inhibition at 0.1 µM [1, 3] of 77%, an inhibition at 0.01 µM [2, 4] of 59% and an inhibition at 0.1 µM ([2]; human serum) of 91%.
